Measured values taken from patent US6737397B1, “Control of cancer growth through the interaction of [MET5]-enkephalin and the zeta receptor” (The Penn State Research Foundation, priority 1996, dated 2004).
Marks after values point to notes of the source that are not given here.

Experiments:
[1] = test system: HT-29 human colon cancer cells; test: HT-29 human colon tumor xenografts in nude mice treated with 0.1 mg/kg naltrexone; assay type: in vivo
Description: HT-29 human colon cancer cells, purchased from the American Type Culture Collection (Rockville, Md.), were grown in McCoy's 5A Modified Medium containing 10% fetal calf serum, L-glutamine (2 mM), penicillin (10 units/ml), and streptomycin ([…]) in an atmosphere of 7% CO2 at 37° C. Cell viability was determined by the trypan blue exclusion test. Five- to six-week-old male athymic nude mice, obtained from the National Cancer Institute (Frederick, Md.), were injected subcutaneously over the right shoulder with 1×10^6 log phase HT-29 cells in a 0.5 ml suspension of McCoy's media. The day of tumor cell inoculation was considered day 0. The mice were evaluated daily and the date that the tumor became palpable was recorded. The time of “initial” appearance of a tumor was considered to be the day when tumor volume was 5 mm^3 or larger. Individual tumors were measured with vernier calipers every 2 days. Measurements of the two largest perpendicular dimensions were recorded and tumors volume was calculated using the formula: length×(width)^2×0.5 [Osieka, R., D. P. Houchens, and A. Goldin. Chemotherapy of human colon cancer xenografts in athymic nude mice. Cancer 40:2640-2650, (1977)]. All mice were euthanized and necropsied 50 days after tumor cell inoculation. Tumor tissue for receptor binding assays and radioimmunoassays was rapidly frozen in liquid nitrogen and stored at −70° C. until assayed.
Treatment was initiated on the day of tumor cell inoculation. […] Animals were weighed-weekly and appropriate dosage adjustments made.
Latencies until tumor appearance were analyzed using one-way analysis of variance; subsequent comparisons were made with the Newman-Keuls test. The number of mice developing tumors was expressed as a ratio of the total number of mice in the group. Comparisons between groups were made with chi-square tests.
The growth of tumors was compared for each mouse beginning on the day of initial tumor appearance and every 3 days thereafter until the termination of the experiment. Tumor measurements on these days were analyzed using one-way analysis of variance and Newman-Keuls test. Body weights were compared with a two-factor analysis of variance.

HT-29 cells = test: Growth assay (cell counts) of HT-29 human colon cancer cells in culture; assay type: cell-based
Description: In some examples, cultures of HT-29 cells were maintained in McCoy's 5A media without fetal calf serum.
(§1) Cells were seeded at equivalent amounts into 75 cm^2 flasks or into 9.6 cm^2 wells (6-well plates, Falcon) and were counted 24 hr later to determine plating efficiency. Drugs or sterile water were added beginning 24 hr after seeding (=0 hours) and both media and drugs were changed daily. All drugs were prepared in sterile water and dilutions represent final concentrations of the compounds. At appropriate times, cells were harvested with 0.05% trypsin/0.53 mM EDTA, centrifuged, and counted with a hemacytometer at 200×. Cell viability was determined by trypan blue staining. At least 2 aliquots/flask or well were counted and 2 flasks or wells/time point/treatment group were sampled.

WiDr cells = test: Growth assay (cell counts) of WiDr human colon cancer cells; assay type: cell-based; settings: 10^−6 M NTX, 48 hr
Description: (§2) HT-29, WiDr, and COLO 205 cell lines were obtained from the American Type Culture Collection (Rockville, Md.). HT-29 cells were grown in McCoy's 5A media (modified), WiDr cells in Minimum Essential Media, and COLO 205 cells in RPMI 1640 media; all media contained 10% fetal calf serum, 2 mM […], 1.2% sodium bicarbonate and antibiotics (11 Units/ml penicillin, 10 μg/ml streptomycin, 10 μg/ml neomycin) in a humidified atmosphere of 7% CO2/93% air at 37° C. In some examples, cultures of HT-29 cells were maintained in McCoy's 5A media without fetal calf serum.
as §1
(§3) To examine the ubiquity of opioid activity with respect to colon cancer, two other colon cancer cell lines were investigated: COLO 205 and WiDr.

COLO 205 cells = test: Growth assay (cell counts) of COLO 205 human colon cancer cells; assay type: cell-based; settings: 10^−6 M NTX, 48 hr
Description: as §2, §1, §3

ζ-opioid receptor [2] = target: T1, ζ-opioid receptor (Homo sapiens, UniProt Q9NZT2); test: Competition for binding of [3H][Met5]enkephalin (4.0 nM) in nuclear homogenates of HT-29 human colon tumors; design: from tissue; host or cells: HT-29 human colon tumor xenografts grown in athymic nude mice; nuclear (P1) and other subcellular fractions
T1 sequence (Q9NZT2 1-677): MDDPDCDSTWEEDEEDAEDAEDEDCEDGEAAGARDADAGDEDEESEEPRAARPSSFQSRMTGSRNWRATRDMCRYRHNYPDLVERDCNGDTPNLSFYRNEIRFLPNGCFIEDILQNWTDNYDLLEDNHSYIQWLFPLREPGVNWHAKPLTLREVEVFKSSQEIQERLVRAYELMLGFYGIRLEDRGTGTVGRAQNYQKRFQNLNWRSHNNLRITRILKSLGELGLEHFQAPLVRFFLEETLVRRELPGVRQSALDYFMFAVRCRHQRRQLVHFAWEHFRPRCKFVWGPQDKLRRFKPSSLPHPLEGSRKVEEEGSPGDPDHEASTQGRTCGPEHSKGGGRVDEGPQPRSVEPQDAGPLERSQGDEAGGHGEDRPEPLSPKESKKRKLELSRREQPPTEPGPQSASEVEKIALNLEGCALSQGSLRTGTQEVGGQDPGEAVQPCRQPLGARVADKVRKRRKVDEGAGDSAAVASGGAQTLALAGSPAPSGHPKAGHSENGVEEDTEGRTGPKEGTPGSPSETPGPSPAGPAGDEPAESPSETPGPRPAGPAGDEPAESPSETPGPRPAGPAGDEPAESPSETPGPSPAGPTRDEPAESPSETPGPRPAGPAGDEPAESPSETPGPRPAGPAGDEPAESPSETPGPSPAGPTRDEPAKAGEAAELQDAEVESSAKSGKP

ζ-opioid receptor [3] = target: T1, ζ-opioid receptor; test: [3H]-[Met5]-enkephalin binding of HT-29 tumor homogenates from nude mice treated with 0.1 mg/kg NTX; design: from tissue; host or cells: HT-29 human colon tumor xenografts grown in athymic nude mice; nuclear (P1) and other subcellular fractions
Description: Endogenous opioid systems regulate growth of neural tumor cells in culture. Brain Res. 490:1313-1318 (1988)].
Receptor binding data were analyzed with a Lundon (Saturation Isotherm Binding Analysis) computer program (Lundon Software, Cleveland, Ohio). This analysis utilizes non-linear least squares regression. Saturation curves and Scatchard plots were computed and plotted directly by this program.

neuroblastoma = settings: cited from earlier work

SMILES: O=C1CC[C@@]2(O)[C@H]3Cc4ccc(O)c5c4[C@@]2(CCN3CC2CC2)[C@H]1O5 [naltrexone]
- Number of mice with tumors 19 days after inoculation ([1]; 0.1 mg/kg NTX daily): 3/10**
- Number of mice with tumors 36 days after inoculation ([1]; 0.1 mg/kg NTX daily): 6/10*
- Number of mice with tumors 50 days after inoculation ([1]; 0.1 mg/kg NTX daily): 8/10
- Latency (days) for initial tumor appearance ([1]; 0.1 mg/kg NTX daily s.c.): 23.1 ± 2.9 days
- Latency (days) for initial tumor appearance (Range) ([1]; 0.1 mg/kg NTX daily s.c.): (14-37) days
- Latency (days) for palpable tumor ([1]; 0.1 mg/kg NTX daily s.c. from inoculation): 17.0 ± 2.8 days
- behavioral differences (e.g. hyperactivity) versus control ([1]; 0.1 mg/kg naltrexone): no behavioral differences
- interval between palpable tumors and initial tumor appearance versus control ([1]; 0.1 mg/kg naltrexone): similar
- mean latency prior to palpable tumor appearance increased compared to control ([1]; 0.1 mg/kg naltrexone): 2.4 fold
- range in latency until initial tumor appearance greater than control ([1]; 0.1 mg/kg naltrexone): up to 2 fold
- size of tumors after initial tumor appearance versus control ([1]; 0.1 mg/kg naltrexone): did not differ
- body weights versus control animals ([1]; 0.1 mg/kg naltrexone, throughout the experiment): comparable
- mice with tumors ([1]; day 36, 0.1 mg/kg): 60%
- mice that still did not have tumors ([1]; day 50, 0.1 mg/kg): 20%
- mice with tumors of 5 mm^3 or larger ([1]; nineteen days after inoculation, 0.1 mg/kg): 30%
- number of mice with palpable tumors ([1]; ten days after tumor cell inoculation, 0.1 mg/kg): 2
- effect on cell growth in serum-free media (HT-29 cells): significant increase in cell number
- increase in cell number compared to control cultures (HT-29 cells; 10^−6 M NTX, 12 hr): 38%
- more cells than control cultures (WiDr cells): 68%
- more cells than control cultures (COLO 205 cells): 76%
- IC50 (ζ-opioid receptor [2]; 4.0 nM [3H][Met5]enkephalin, read-out: IC50): 90.5 ± 3.5 nM
- Ki (ζ-opioid receptor [2]; calculated from IC50 by Cheng and Prusoff, read-out: KI): 69.6 ± 2.7 nM
- binding affinity (Kd) versus control levels (ζ-opioid receptor [3]; 0.1 mg/kg naltrexone): did not differ
- binding capacity (Bmax) decreased from control values (ζ-opioid receptor [3]; 0.1 mg/kg naltrexone): 6.6 fold
- Bmax, fmol/mg protein (ζ-opioid receptor [3]; tumors from mice treated with 0.1 mg/kg NTX): 52.9 ± 12.1 fmol/mg protein
- duration of opioid receptor blockade (neuroblastoma; 0.1 mg/kg single daily injection): 4-6 h/day
- course of tumorigenesis and survival (neuroblastoma; chronic receptor blockade: 10 mg/kg per day or 0.1 mg/kg 4 times daily): accelerated the course of tumorigenesis and shortened survival
- tumor effect (e.g. tumor incidence) (neuroblastoma; single daily injection of 0.1 mg/kg): antitumor effect
